# Data taken from paper PMC11619157, “Stephanine Protects Against Osteoporosis by Suppressing Osteoclastogenesis via Inhibition of the RANKL—RANK Interaction” (Journal of Cellular and Molecular Medicine, 2024).
# pKd: −log10 of the molar value.
# Key:
# RANKL = biological target: T1, RANKL (Homo sapiens, UniProt O14788); test: SPR kinetics (Biacore S200), RANKL amine-coupled on CM5 chip; assay type: binding
# T1 construct: gene TNFSF11; extracellular domain
# T1 sequence (O14788 69-317 limits assumed): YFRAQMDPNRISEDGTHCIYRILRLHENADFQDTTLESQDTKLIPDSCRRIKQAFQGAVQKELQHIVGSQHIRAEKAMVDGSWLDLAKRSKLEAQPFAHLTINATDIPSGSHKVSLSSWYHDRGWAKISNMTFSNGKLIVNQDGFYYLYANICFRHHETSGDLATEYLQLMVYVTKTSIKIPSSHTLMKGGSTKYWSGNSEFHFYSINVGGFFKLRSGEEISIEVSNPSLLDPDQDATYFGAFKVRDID
# RANK = biological target: T2, RANK (Homo sapiens, UniProt Q9Y6Q6); test: SPR kinetics (Biacore S200), RANK amine-coupled on CM5 chip; assay type: binding
# T2 construct: gene TNFRSF11A; extracellular domain
# T2 sequence (Q9Y6Q6 30-212 limits assumed): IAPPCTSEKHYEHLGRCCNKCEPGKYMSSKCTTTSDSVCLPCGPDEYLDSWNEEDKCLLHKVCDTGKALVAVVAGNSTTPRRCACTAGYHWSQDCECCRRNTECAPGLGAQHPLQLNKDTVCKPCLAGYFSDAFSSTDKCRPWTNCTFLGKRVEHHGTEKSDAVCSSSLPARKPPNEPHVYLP
compound,measurement,setting,value
"COc1cccc2c1C[C@@H]1c3c(cc4c(c3-2)OCO4)CCN1C [SA, Stephanine]",pKd,RANKL,4.12
same,pKd,RANK,5.43
